Experimental data from patent US9102977B2, “Method for analysis of cellular DNA content” (ChemoMetec A/S, priority 2010, dated 2015).

How the values were obtained:
U2OS cells [1] = conditions: known/described effect; cited from earlier work
U2OS cells [2] = assay: Measurement of drug effects on cell cycle using acid lysis method (DNA content by DAPI image cytometry); assay type: cell-based, human; conditions: drug treatment for 20 hours, Nucleocounter NC-3000 (FIG. 5)
Protocol: U2OS cells were grown in RPMI+10% FCS to approximately 75% confluency in 6-well plates (Nunclon surface, Nunc) and then treated with the following drugs for 20 hours:
After drug treatment each of the wells was washed once with 1 mL of PBS and then incubated with 0.25 ml of lysis buffer (100 mM citrate buffer (pH 2.25), 0.5% Triton X-100, 5 μg/ml DAPI) for 5 minutes at 37° C. Prior to quantitative image cytometry (Nucleocounter NC-3000), the samples were neutralized by adding 0.25 ml stabilization buffer (500 mM citrate, pH 8.3).

| Structure (SMILES) | known effect of the drug on the cell cycle (arrest phase) (U2OS cells [1]) | cell cycle distribution (DNA content histogram) (U2OS cells [2]) |
| --- | --- | --- |
| N[C@@H](Cn1ccc(=O)c(O)c1)C(=O)O [L-mimosine] | 2. L-mimosine (G1 arrest): | predominantly G1 peak |
| NC(=O)NO [Hydroxyurea] | 3. Hydroxyurea, HU (S arrest): |  |
| COC(=O)Nc1nc2ccc(C(=O)c3cccs3)cc2[nH]1 [Nocodazole] | 1. Nocodazole (G2-M arrest): |  |
| CC[C@@]1(O)C(=O)OCc2c1cc1n(c2=O)Cc2cc3ccccc3nc2-1 [Camptothecin] | 4. Camptothecin, CRT (S-G2 arrest): | accumulation of S-G2 cells |
| COc1cc([C@@H]2c3cc4c(cc3[C@@H](O[C@@H]3O[C@@H]5CO[C@@H](C)O[C@H]5[C@H](O)[C@H]3O)[C@H]3COC(=O)[C@H]23)OCO4)cc(OC)c1O [Etoposide] | 5. Etoposide (S-G2 arrest): |  |
